Assay results published in patent US5578315A, “Mucosal adhesive device for long-acting delivery of pharmaceutical combinations in oral cavity” (Rutgers, The State University of New Jersey, priority 1993, dated 1996).
Values after ≈ are worked out from the molar mass of the structure shown.

Assay: Solubility in isotonic phosphate buffer containing PEG 400
Format: physicochemical
Procedure: For use of clotrimazole, solubility in phosphate buffer is an issue and therefore, 20% and 40% PEG 400 are added to the phosphate buffer and the solubility is determined.

## Clc1ccccc1C(c1ccccc1)(c1ccccc1)n1ccnc1 [clotrimazole, Clotrimazole]
Organic solvent or mixture, isotonic phosphate buffer (pH 6.8) containing 20% PEG 400
  solubility: ~60 µg/mL (≈ 174 µM)
pH 6.8, organic solvent or mixture, phosphate buffer containing 40% PEG 400
  solubility: ~430 µg/mL (≈ 1250 µM)
